Assay results published in PubChem BioAssay (NCI).
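All cell lines were grown in 96-well plates and treated with compound for 48 hours. GI50 is the concentration that inhibits growth by half. TGI: concentration producing complete growth inhibition.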 Where a SMILES comes first, the peptide text is derived from it. [ ]: non-standard residue; d: D form. β3hI = CC[CH](C)[CH](N)CC(=O)O

Key:
Assay in all cases: DTP human tumour cell line panel, 48 h
M14 melanoma = tested on: M14 melanoma
HT29 colon = tested on: HT29 colon
OVCAR-5 ovarian = tested on: OVCAR-5 ovarian
HL-60(TB) leukemia = tested on: HL-60(TB) leukemia
OVCAR-4 ovarian = tested on: OVCAR-4 ovarian
OVCAR-3 ovarian = tested on: OVCAR-3 ovarian
KM12 colon = tested on: KM12 colon
HOP-92 NSCLC = tested on: HOP-92 NSCLC
SF-539 CNS = tested on: SF-539 CNS
RXF 393 renal = tested on: RXF 393 renal
PC-3 prostate = tested on: PC-3 prostate
HCT-116 colon = tested on: HCT-116 colon
DU-145 prostate = tested on: DU-145 prostate
MDA-MB-435 = tested on: MDA-MB-435
SW-620 colon = tested on: SW-620 colon
MOLT-4 leukemia = tested on: MOLT-4 leukemia
U251 CNS = tested on: U251 CNS
HCC-2998 colon = tested on: HCC-2998 colon
A498 renal = tested on: A498 renal

Row | Structure (SMILES) | TGI (M14 melanoma) [µM] | TGI (HT29 colon) [µM] | TGI (OVCAR-5 ovarian) [µM] | TGI (HL-60(TB) leukemia) [µM] | TGI (OVCAR-4 ovarian) [µM] | TGI (OVCAR-3 ovarian) [µM] | TGI (KM12 colon) [µM] | TGI (HOP-92 NSCLC) [µM] | TGI (SF-539 CNS) [µM] | TGI (RXF 393 renal) [µM] | TGI (PC-3 prostate) [µM] | TGI (HCT-116 colon) [µM] | TGI (DU-145 prostate) [µM] | TGI (MDA-MB-435) [µM] | TGI (SW-620 colon) [µM] | TGI (MOLT-4 leukemia) [µM] | TGI (U251 CNS) [µM] | TGI (HCC-2998 colon) [µM] | TGI (A498 renal) [µM] | GI50 (HL-60(TB) leukemia) [µM]
1 | CC1(C)CN=C(Nc2cccc(C(F)(F)F)c2)S1 | > 100 | > 100 | > 100 | > 100 | > 100 | > 100 | > 100 | > 100 | > 100 | > 100 | > 100 | > 100 | > 100 | > 100 | > 100 | > 100 | > 100 | > 100 | – | –
2 | O=C(CCc1cccc(O)c1)NCCc1ccc(O)cc1 | > 100 | > 100 | > 100 | > 100 | > 100 | > 100 | > 100 | > 100 | > 100 | > 100 | > 100 | > 100 | > 100 | > 100 | – | > 100 | > 100 | – | > 100 | –
3 | N/N=C1\CCCc2c1no[n+]2[O-] | > 100 | > 100 | > 100 | > 100 | > 100 | > 100 | > 100 | – | > 100 | > 100 | > 100 | > 100 | > 100 | > 100 | > 100 | > 100 | > 100 | > 100 | > 100 | –
4 | CCOC(=O)c1[nH]c2ccccc2c1C(=O)C[C@H](NC(=O)C(F)(F)F)C(=O)OC | > 100 | > 100 | > 100 | > 100 | > 100 | > 100 | > 100 | > 100 | > 100 | – | > 100 | > 100 | > 100 | > 100 | > 100 | > 100 | > 100 | > 100 | > 100 | –
5 | COc1ccc2[nH]c3c(c2c1)COc1ccccc1C3=O | > 100 | > 100 | > 100 | > 100 | > 100 | > 100 | > 100 | > 100 | > 100 | – | > 100 | > 100 | > 100 | > 100 | > 100 | > 100 | > 100 | > 100 | > 100 | –
6 | c1ccc(/N=N/Nc2ccc(-c3nc4ccccc4[nH]3)cc2)nc1 | > 100 | 45.2 | 84.1 | > 100 | 35.8 | 28.2 | 30.7 | 40.5 | 31.3 | 32.5 | 47.2 | 19.7 | 27.7 | 45.7 | 71.5 | 25.4 | 30.1 | – | > 100 | –
7 | O=C(c1cccnc1)N1N=C(c2ccc(Cl)cc2)CC1(O)c1cc(F)c(Cl)cc1Cl (centres undefined) | 91.9 | 75.8 | > 100 | 47.9 | > 100 | 26.9 | > 100 | 59.8 | 28.1 | 26.7 | 43.4 | 52.8 | > 100 | > 100 | > 100 | > 100 | 34.3 | – | – | –
8 | COc1cccc(N2C(=O)CSC2c2cc(OC)c(OC)c(OC)c2)c1 (centres undefined) | > 100 | > 100 | > 100 | 98 | > 100 | 66.2 | > 100 | > 100 | > 100 | – | > 100 | > 100 | 39.7 | 17.6 | > 100 | > 100 | > 100 | 85.2 | > 100 | –
9 | CCOC(=O)[C@@]12CCC(C1=O)[C@](C)(O)C[C@@H]2c1ccccc1 | > 100 | 73.2 | > 100 | > 100 | > 100 | 84 | > 100 | > 100 | > 100 | > 100 | > 100 | > 100 | > 100 | 38.4 | > 100 | > 100 | > 100 | – | – | –
10 | CCC(C)C(CC(=O)N1CCCC1C(=O)NC(C(=O)NC(C(=O)NCC(=O)NC(CC(N)=O)C(=O)NC(C(=O)NC(C(=O)NC(CCCCN)C(N)=O)C(C)CC)C(C)CC)C(C)C)C(C)CC)NC(=O)C(N)C(C)CC (stereo not drawn) (H-I[β3hI]PIVGNIIK-NH2; configuration not given here) | > 50 | > 50 | > 50 | > 50 | > 50 | > 50 | > 50 | > 50 | > 50 | – | > 50 | > 50 | > 50 | > 50 | > 50 | > 50 | > 50 | – | > 50 | –
11 | O=[N+]([O-])c1cc(-[n+]2cc([O-])on2)ccc1F | 29.6 | 33.3 | 31.2 | 49 | 30.4 | 32.6 | 31.5 | 32.6 | – | 27.2 | 35.1 | 28.6 | 25.4 | 29.8 | 38.3 | – | 32.4 | 28.6 | – | –
12 | COC(=O)CCn1cnc2c(SC)ncnc21 | > 100 | > 100 | > 100 | > 100 | > 100 | > 100 | > 100 | > 100 | > 100 | > 100 | > 100 | > 100 | > 100 | > 100 | > 100 | > 100 | – | – | > 100 | –
13 | NC1=NNC2(C(N)=N1)c1ccccc1-c1ccccc12 | > 10 | > 10 | – | > 10 | > 10 | – | > 10 | > 10 | > 10 | > 10 | > 10 | > 10 | > 10 | > 10 | > 10 | > 10 | – | > 10 | – | –
14 | N#CCCN(CCC#N)c1ccc(/C=C2\N=C(c3ccccc3)N(c3ccccn3)C2=O)cc1 | > 100 | > 100 | > 100 | > 100 | > 100 | > 100 | > 100 | > 100 | > 100 | > 100 | > 100 | > 100 | > 100 | > 100 | > 100 | > 100 | > 100 | – | > 100 | –
15 | CN(C1=NCCO1)c1cccc2c1CCCC2 | 6.09 | 5.2 | > 10 | > 10 | 7.78 | – | > 10 | – | > 10 | > 10 | 8.53 | 8.95 | > 10 | > 10 | > 10 | > 10 | > 10 | > 10 | 9.35 | –
16 | N/N=C1/CCCc2nonc21 | > 100 | > 100 | > 100 | > 100 | > 100 | > 100 | > 100 | > 100 | > 100 | > 100 | > 100 | > 100 | > 100 | > 100 | > 100 | > 100 | > 100 | > 100 | – | –
17 | CCCCn1c2c(n(CCCC)c1=S)-c1c(n(CCCC)c(=S)n1CCCC)SSSS2 | 17.5 | 7.91 | 1.66 | – | 9.6 | 2.65 | > 33.1 | 6.04 | 2.94 | 14.6 | 7.24 | 11.8 | > 35.3 | 23.9 | 3.8 | > 36.2 | 12.9 | 26.7 | > 100 | –
18 | CCOC(=O)NC(NC(C)CC)(C(F)(F)F)C(F)(F)F (centres undefined) | > 100 | > 100 | > 100 | > 100 | > 100 | > 100 | > 100 | > 100 | > 100 | > 100 | > 100 | > 100 | > 100 | > 100 | > 100 | > 100 | > 100 | – | > 100 | –
19 | NS(=O)(=O)c1ccc(CNc2nc(-c3cccs3)nc3ccc(I)cc23)cc1 | 28.4 | 39.2 | 44.4 | > 100 | 60.5 | 30.1 | 23.7 | 54.4 | 30.8 | 43.5 | 53.3 | 28.1 | 30.3 | 27.8 | 83.8 | 81.8 | 37.7 | 27.7 | – | 29.9
20 | Cn1c(-c2ccc(/C=N\N3CCN(/N=C/c4ccc(-c5c[n+]6ccsc6n5C)cc4)CC3)cc2)c[n+]2ccsc12 | > 100 | > 100 | > 100 | 48.3 | > 100 | > 100 | > 100 | > 100 | > 100 | > 100 | > 100 | > 100 | > 100 | > 100 | > 100 | > 100 | > 100 | – | 82.3 | –
21 | O=C1CC2(CCNCC2)C(=O)N1N1CCCC1 | > 100 | > 100 | > 100 | > 100 | – | > 100 | > 100 | – | > 100 | > 100 | > 100 | > 100 | > 100 | > 100 | > 100 | > 100 | > 100 | > 100 | – | –
22 | ClC1=C(Cc2ccccc2)Cc2ccc3c(c21)CCC3 | > 100 | 50.9 | > 100 | 41.5 | > 100 | 87.2 | 39.2 | > 100 | > 100 | 45 | > 100 | 94.9 | > 100 | 75.6 | > 100 | 39.8 | 39.3 | 40.1 | – | –
23 | Oc1c(C2=N[C@H]3CCCC[C@@H]3N2)ccc2ccccc12 | > 100 | > 100 | > 100 | > 100 | > 100 | > 100 | > 100 | > 100 | > 100 | – | > 100 | > 100 | > 100 | > 100 | > 100 | > 100 | > 100 | > 100 | > 100 | –
24 | N#CC(c1cc2c(cc1Br)OCO2)N1CCOCC1 (centres undefined) | > 100 | > 100 | > 100 | 25.7 | > 100 | > 100 | > 100 | > 100 | 92.1 | 51.6 | 71.2 | > 100 | > 100 | 18.4 | > 100 | > 100 | – | > 100 | – | –
25 | O=c1[nH]nc(Cc2ccc(Cl)cc2)n1/N=C\c1ccc(/C=N/n2c(Cc3ccc(Cl)cc3)n[nH]c2=O)cc1 | > 100 | > 100 | > 100 | > 100 | > 100 | > 100 | > 100 | > 100 | – | > 100 | > 100 | > 100 | > 100 | > 100 | > 100 | > 100 | 97.9 | – | > 100 | –
26 | CC(C)NC(=O)OCCN=C1c2ccccc2CCc2ccccc21 | 39.7 | 47.6 | 82.9 | 45.7 | 43.1 | 58.5 | > 100 | 55 | 41.5 | > 100 | 62.4 | 46.6 | 88.9 | 55.1 | > 100 | 39.7 | 50.6 | 39 | – | –
